Test results published in patent publication US10689343B2, “Inhibitors of tryptophan 2,3-dioxygenase” (NETHERLANDS TRANSLATIONAL RESEARCH CENTER B.V., priority 2016, dated 2020).
“And” between values parts separate entries of the source, which are not always exact repeats. Identical values can stand only once.

Tests used:
[1] = molecular target: T1, TDO in SW48 colorectal carcinoma cells (Homo sapiens, UniProt P48775); experiment: Cell-based assay for TDO in SW48 colorectal carcinoma cells (NFK GreenScreen); conditions: 18 hours with L-tryptophan, read-out: IC50 on TDO in cells
T1 construct: Endogenous expression of TDO has been determined in a variety of cancer cell lines; host or cells: SW48 colorectal carcinoma cells
Method: The biological activity of TDO inhibitors can be measured by applying above detection methods to cells that are treated with test compound. Endogenous expression of TDO has been determined in a variety of cancer cell lines (Pilotte et al.; Seegers, et al.), or TDO can be expressed in cells that lack endogenous TDO by transfection of an expression vector containing TDO cDNA. […] A preferred assay is the cell-based NFK GreenScreen™ assay (Seegers et al, supra), which measures the cellular inhibitory activity of compounds on TDO. […] No. V9920). Cell-Based Assay for TDO The NFK GreenScreen™ assay technology was also used to determine the inhibitory activity of compounds on TDO in SW48 colorectal carcinoma cells (Seegers, N., et al., J. Biol. Screen. 19: 1266; 2014). […] Compounds were dissolved in DMSO and diluted in RPMI 1640. Final DMSO concentration in the assay was 0.4% (v/v). Eight thousand cells per well in 40 μl were seeded in a black 384-well tissue plate (cat. No. 781086; […] To determine NFK levels, 12 μl NFK Green™ (NTRC, Oss, The Netherlands) was added to each well, and the plate was sealed and incubated for 4 hours at 37° C. Fluorescence was measured on an EnVision multimode reader (Perkin Elmer, Waltham, Mass., USA).

CYP2D6 = CYP2D6 (Homo sapiens, UniProt P10635); experiment: P450-Glo CYP2D6 Luc-IP assay
CYP3A4 = CYP3A4 (Homo sapiens, UniProt P08684); experiment: P450-Glo CYP3A4 luciferin isopropylacetal (Luc-IP) assay
Source text: To determine the inhibitory potency of compounds on CYP3A4 enzyme, the P450-Glo CYP3A4 luciferin isopropylacetal (Luc-IP) assay was used (Promega, Madison, Wis., USA, Cat. No. V9920). The assay makes use of a luminogenic isopropylacetal (IPA) substrate that is a derivative from beetle luciferin, a substrate of luciferase enzymes. The IPA substrate is converted by CYP3A4 to luciferin, which in turn reacts with luciferase to produce an amount of light that is directly proportional to the activity of CYP3A4. Compounds were serially diluted in DMSO and finally in 400 mM K2HPO4, pH 7.4. 5 μl of compound solution and 5 μl of CYP3A4/substrate solution were combined in the well of a white 384-well Optiplate (Perkin Elmer). The DMSO concentration in the assay was 0.1%. After incubation for 10 minutes at room temperature in the dark, 10 μl of NADPH regeneration system was added and incubation was continued for 10 min. Then, 20 μl of Luciferin Detection Reagent was added to stop the reaction, and incubation was continued for another 20 min. Luminescence was measured on an Envision multimode reader and IC50 values were calculated using XLfit™. […] Instead of in a 96-well plate, the assay was performed in 384-well white Perkin Elmer Optiplate (cat. no. 6007290).

Recombinant TDO = molecular target: T2, Recombinant TDO (Homo sapiens, UniProt P48775); experiment: Biochemical assay for TDO (NFK GreenScreen); conditions: 50 nM TDO, 200 μM L-tryptophan
T2 construct: Recombinant TDO (Seegers, N., et al.) and all other assay components were diluted in TDO reaction buffer
Method: Biochemical Assay for TDO
The NFK GreenScreen™ assay technology was also used to determine the inhibitory activity of compounds on TDO (Seegers, N., et al., J. Biol. Screen. 19: 1266; 2014). Compounds were serially diluted in DMSO and finally in TDO reaction buffer, consisting of 100 mM NaH2PO4, pH 7.0, supplemented with 0.02% Tween-20 (cat. No. P7949; Sigma Aldrich). Recombinant TDO (Seegers, N., et al.) and all other assay components were diluted in TDO reaction buffer. 10 μl of compound solution and 20 μl of enzyme solution supplemented with 200 μM ascorbic acid were combined in the well of a black 384-well plate (cat. no. 3573; Corning, Corning, N.Y., USA), and incubated for 60 min at room temperature. Subsequently, 10 μl of 0.8 mM of the substrate L-tryptophan was added, i.e., the final concentration of L-tryptophan was 200 μM. The DMSO concentration in the assay was 0.3%. The concentration of TDO was 50 nM. Incubation was continued for 15 min at room temperature. Then, 10 μl of NFK Green™ (NTRC, Oss, The Netherlands) was added, the plate was sealed, and the reaction was developed for 3 hours at 37° C. To determine the production of N-formyl kynurenine (NFK), the seal was removed and fluorescence was read on an EnVision multimode reader (Perkin Elmer, Waltham, Mass., USA). IC50 were calculated using XLfit™ software (ID Business Solutions, Ltd., Surrey, U.K.).

Chain of CYP2D6 (P10635 whole entry): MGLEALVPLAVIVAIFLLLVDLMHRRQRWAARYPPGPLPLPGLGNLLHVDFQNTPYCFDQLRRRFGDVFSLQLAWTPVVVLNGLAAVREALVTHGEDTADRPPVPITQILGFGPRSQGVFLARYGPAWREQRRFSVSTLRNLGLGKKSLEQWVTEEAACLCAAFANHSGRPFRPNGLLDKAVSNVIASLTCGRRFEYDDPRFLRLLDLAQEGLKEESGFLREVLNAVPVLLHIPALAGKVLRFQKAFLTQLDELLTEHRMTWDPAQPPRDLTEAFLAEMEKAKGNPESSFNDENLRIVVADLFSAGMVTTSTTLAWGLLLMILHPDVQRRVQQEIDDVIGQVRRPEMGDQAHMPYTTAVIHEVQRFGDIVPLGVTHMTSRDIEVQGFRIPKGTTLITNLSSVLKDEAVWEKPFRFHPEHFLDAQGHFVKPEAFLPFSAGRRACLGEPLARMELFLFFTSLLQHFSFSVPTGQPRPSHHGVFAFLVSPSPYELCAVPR
Chain of CYP3A4 (P08684 whole entry): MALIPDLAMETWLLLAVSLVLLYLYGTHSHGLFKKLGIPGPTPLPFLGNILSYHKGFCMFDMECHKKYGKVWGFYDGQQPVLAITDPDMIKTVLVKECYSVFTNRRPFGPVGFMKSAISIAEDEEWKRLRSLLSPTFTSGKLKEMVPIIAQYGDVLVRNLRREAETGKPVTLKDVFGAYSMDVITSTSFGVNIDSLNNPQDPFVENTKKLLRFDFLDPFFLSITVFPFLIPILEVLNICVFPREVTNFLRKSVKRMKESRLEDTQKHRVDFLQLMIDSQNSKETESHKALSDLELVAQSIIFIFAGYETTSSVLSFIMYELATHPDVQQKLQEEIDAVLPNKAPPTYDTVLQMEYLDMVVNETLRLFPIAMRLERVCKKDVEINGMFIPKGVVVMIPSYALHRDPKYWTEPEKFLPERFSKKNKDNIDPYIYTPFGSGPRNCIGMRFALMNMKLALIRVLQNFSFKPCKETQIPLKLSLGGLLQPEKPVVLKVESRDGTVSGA
T2 sequence (P48775 whole entry): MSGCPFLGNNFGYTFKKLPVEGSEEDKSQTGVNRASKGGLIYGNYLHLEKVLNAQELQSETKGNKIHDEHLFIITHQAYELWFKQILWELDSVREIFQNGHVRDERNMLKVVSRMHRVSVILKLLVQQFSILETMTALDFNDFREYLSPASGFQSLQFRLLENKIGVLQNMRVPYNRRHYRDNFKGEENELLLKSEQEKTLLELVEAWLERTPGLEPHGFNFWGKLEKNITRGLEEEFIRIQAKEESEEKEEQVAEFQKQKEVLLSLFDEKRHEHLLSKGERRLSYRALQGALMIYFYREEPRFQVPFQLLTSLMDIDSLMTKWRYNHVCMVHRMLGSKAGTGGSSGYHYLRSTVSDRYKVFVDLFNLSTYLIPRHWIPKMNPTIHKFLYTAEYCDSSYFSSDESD
T1 sequence (P48775 whole entry): as above

SMILES	IC50 [1]	IC50 (CYP2D6) [µM]	IC50 (CYP3A4) [µM]	IC50 (Recombinant TDO) [µM]
CN1CCC(NC(=O)c2ccc(-c3c[nH]c4cc(F)ccc34)cc2Cl)CC1 [Example 69, 2-Chloro-4-(6-fluoro-1H-indol-3-yl)-N-(1-methyl-4-piperidyl)benzamide]	≤ 0.2 µM	> 10	> 10	< 1
O=C(Nc1ccc(-c2c[nH]c3cc(F)ccc23)cc1)[C@@H]1CCCNC1 [Example 131, (3R)—N-[4-(6-fluoro-1H-indol-3-yl)phenyl]piperidine-3-carboxamide]	≤ 0.5 µM and 0.2 to 0.5 µM	> 10	> 10	< 1
CN1C2CCC1CC(NC(=O)c1ccc(-c3c[nH]c4cc(F)ccc34)cc1)C2 (stereo not shown) [Example 47, 4-(6-Fluoro-1H-indol-3-yl)-N-(8-methyl-8-azabicyclo[3.2.1]octan-3-yl)benzamide]	≤ 0.5 µM and 0.2 to 0.5 µM	> 10	> 10	< 1
CC(=O)N1CCCC(NC(=O)c2ccc(-c3c[nH]c4cc(F)ccc34)cc2)C1 (stereo not shown) [Example 119, N-(1-acetyl-3-piperidyl)-4-(6-fluoro-1H-indol-3-yl)benzamide]	≤ 0.5 µM and 0.2 to 0.5 µM	> 10	5 to 10	1 to 5
O=C(NC1[C@H]2COC[C@@H]12)c1ccc(-c2c[nH]c3cc(F)ccc23)cc1 (stereo partly drawn) [Example 64, 4-(6-Fluoro-1H-indol-3-yl)-N-[(1R,5S)-3-oxabicyclo[3.1.0]hexan-6-yl]benzamide]	≤ 0.5 µM and 0.2 to 0.5 µM	> 10	> 10	< 1
CSCC(=O)Nc1ccc(-c2c[nH]c3cc(F)ccc23)cc1 [Example 31, N-[4-(6-fluoro-1H-indol-3-yl)phenyl]-2-methylsulfanyl-acetamide]	≤ 0.5 µM and 0.2 to 0.5 µM	> 10	> 10	< 1
O=C(N[C@@H]1CCNC[C@@H]1F)c1ccc(-c2c[nH]c3cc(F)ccc23)cc1 [Example 74, 4-(6-Fluoro-1H-indol-3-yl)-N-[(3S,4R)-3-fluoro-4-piperidyl]benzamide]	≤ 0.2 µM	> 10	5 to 10	< 1
C[C@H](CO)NC(=O)c1ccc(-c2c[nH]c3cc(F)ccc23)c(F)c1 [Example 117, 3-Fluoro-4-(6-fluoro-1H-indol-3-yl)-N-[(1R)-2-hydroxy-1-methyl-ethyl]benzamide]	≤ 0.5 µM and 0.2 to 0.5 µM	5 to 10	5 to 10	< 1
O=C(N[C@@H]1CN2CCC1CC2)c1ccc(-c2c[nH]c3cc(F)ccc23)cc1 [Example 20, 4-(6-Fluoro-1H-indol-3-yl)-N-[(3S)-quinuclidin-3-yl]benzamide]	≤ 0.2 µM	> 10	> 10	< 1
O=C(NCC1(F)CCNCC1)c1ccc(-c2c[nH]c3cc(F)ccc23)cc1 [Example 76, 4-(6-Fluoro-1H-indol-3-yl)-N-[(4-fluoro-4-piperidyl)methyl]benzamide]	≤ 0.2 µM	> 10	> 10	< 1
O=C(N[C@H]1CN2CCC1CC2)c1ccc(-c2c[nH]c3cc(F)ccc23)cc1 [Example 133, 4-(6-Fluoro-1H-indol-3-yl)-N-[(3R)-quinuclidin-3-yl]benzamide]	≤ 0.2 µM	> 10	> 10	< 1
O=C(NOC[C@@H](O)CO)c1ccc(-c2c[nH]c3cc(F)ccc23)cc1 [Example 66, N-[(2S)-2,3-dihydroxypropoxy]-4-(6-fluoro-1H-indol-3-yl)benzamide]	≤ 0.5 µM and 0.2 to 0.5 µM	> 10	5 to 10	< 1
O=C(NN1CCOCC1)c1ccc(-c2c[nH]c3cc(F)ccc23)cc1 [Example 93, 4-(6-Fluoro-1H-indol-3-yl)-N-morpholino-benzamide]	≤ 0.5 µM and 0.2 to 0.5 µM	> 10	> 10	< 1
CC(O)C(C)NC(=O)c1ccc(-c2c[nH]c3cc(F)ccc23)cc1 (stereo not shown) [Example 21, 4-(6-Fluoro-1H-indol-3-yl)-N-(2-hydroxy-1-methyl-propyl)benzamide]	≤ 0.2 µM	> 10	> 10	< 1
NS(=O)(=O)N1CCCC(NC(=O)c2ccc(-c3c[nH]c4cc(F)ccc34)cc2)C1 (stereo not shown) [Example 132, 4-(6-Fluoro-1H-indol-3-yl)-N-(1-sulfamoyl-3-piperidyl)benzamide]	≤ 0.5 µM and 0.2 to 0.5 µM	> 10	> 10	1 to 5
O=C(Nc1ccc(-c2c[nH]c3cc(F)ccc23)cc1)C1C2CNCC21 (stereo not shown) [Example 104, N-[4-(6-fluoro-1H-indol-3-yl)phenyl]-3-azabicyclo[3.1.0]hexane-6-carboxamide]	≤ 0.5 µM and 0.2 to 0.5 µM	> 10	5 to 10	< 1
C[C@@H](CO)NC(=O)c1ccc(-c2c[nH]c3cc(F)ccc23)cc1Cl [Example 54, 2-Chloro-4-(6-fluoro-1H-indol-3-yl)-N-[(1S)-2-hydroxy-1-methyl-ethyl]benzamide]	≤ 0.2 µM	> 10	> 10	< 1
O=C(NC1COC1)c1ccc(-c2c[nH]c3cc(F)ccc23)cc1 [Example 26, 4-(6-Fluoro-1H-indol-3-yl)-N-(oxetan-3-yl)benzamide]	≤ 0.5 µM and 0.2 to 0.5 µM	> 10	> 10	< 1
C[C@H]1CNCC[C@H]1C(=O)Nc1ccc(-c2c[nH]c3cc(F)ccc23)cc1 [Example 110, (3R,4R)—N-[4-(6-fluoro-1H-indol-3-yl)phenyl]-3-methyl-piperidine-4-carboxamide]	≤ 0.5 µM and 0.2 to 0.5 µM	> 10	5 to 10	< 1
O=C(Nc1ccc(-c2c[nH]c3cc(F)ccc23)cc1)C1CC12CCNCC2 (stereo not shown) [Example 97, N-[4-(6-Fluoro-1H-indol-3-yl)phenyl]-6-azaspiro[2.5]octane-2-carboxamide]	≤ 0.5 µM and 0.2 to 0.5 µM	> 10	> 10	< 1
O=C(N[C@@H](CO)c1ccccc1)c1ccc(-c2c[nH]c3cc(F)ccc23)cc1 [Example 16, 4-(6-fluoro-1H-indol-3-yl)-N-[(1R)-2-hydroxy-1-phenyl-ethyl]benzamide]	≤ 0.5 µM and 0.2 to 0.5 µM	5 to 10	5 to 10	1 to 5
C[C@H](CO)NC(=O)c1ccc(-c2c[nH]c3cc(F)ccc23)cc1F [Example 129, 2-Fluoro-4-(6-fluoro-1H-indol-3-yl)-N-[(1R)-2-hydroxy-1-methyl-ethyl]benzamide]	≤ 0.5 µM and 0.2 to 0.5 µM	> 10	> 10	< 1
O=C(NC[C@@H]1CCNC1)c1ccc(-c2c[nH]c3cc(F)ccc23)cc1 [Example 95, 4-(6-Fluoro-1H-indol-3-yl)-N-[[(3R)-pyrrolidin-3-yl]methyl]benzamide]	≤ 0.5 µM and 0.2 to 0.5 µM	> 10	> 10	< 1
C[C@@H](CO)NC(=O)c1ccc(-c2c[nH]c3cc(F)ccc23)cc1F [Example 123, 2-Fluoro-4-(6-fluoro-1H-indol-3-yl)-N-[(1S)-2-hydroxy-1-methyl-ethyl]benzamide]	≤ 0.2 µM	> 10	5 to 10	< 1
COC(=O)C(NC(=O)c1ccc(-c2c[nH]c3cc(F)ccc23)cc1)C1CCNCC1 (stereo not shown) [Example 122, Methyl 2-[[4-(6-fluoro-1H-indol-3-yl)benzoyl]amino]-2-(4-piperidyl)acetate]	≤ 0.5 µM and 0.2 to 0.5 µM	> 10	5 to 10	< 1
